Laboratory results reported in the METLIN SMRT retention time set (Domingo-Almenara et al. 2019).

experiment: gradient 5% acetonitrile 3 min, to 50% in 2 min, to 85% in 15 min, held 3 min, 100 µL/min; settings: column: Zorbax Extend-C18 2.1 x 50 mm; eluents: water / acetonitrile, 0.1% formic acid
How it was run: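 Data were gathered over 3 months by HPLC coupled to a quadrupole time-of-flight mass spectrometer, operated in positive and negative ionization mode. Mixtures of ~100 pure standards ran on a Zorbax Extend-C18 column (2.1 × 50 mm, 1.8 μm) at 100 μL/min, with water and acetonitrile each containing 0.1% formic acid and dead and dwell volumes of 40 μL and 900 μL. Retention time was read from adduct peaks picked by computer and checked manually.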

| RP-LC retention time [s] | Compound |
| --- | --- |
| 767 | Cc1ccc(S(=O)(=O)NCC2CN(CC3CC3)CC23CCCCC3)c(C)c1 (stereo not given) |
| 788 | COc1ccc(-c2nc(C)cc3nn(CC(=O)NCc4ccccc4)c(=O)n23)cc1 |
| 701 | Cc1ccc(C)c(NS(=O)(=O)c2cc(-c3[nH]ncc3C(=O)N3CCOCC3)oc2C)c1 |
| 590 | COCCc1nc(C2CCCN(C(=O)c3sccc3C)C2)n[nH]1 (stereo not given) |
| 615 | Cc1nnc(-c2coc(S(=O)(=O)N3CCC(N4CCCCC4)CC3)c2)o1 |
| 698 | CCCNC(=O)C1CCCN(c2ccc(SCC(=O)NCc3ccc(C)c(C)c3)nn2)C1 (stereo not given) |
| 651 | CCNC(=O)c1ccc2c(c1)CCN2C(=O)CC |
| 844 | Cc1ccc(-n2c(=O)c3c(cc(C)n3C)n(CC(=O)Nc3cc(C)cc(C)c3)c2=O)cc1 |
| 702 | CCOC(=O)c1ccc(NS(=O)(=O)c2cc3n(c2)CCN(C)C3=O)cc1 |
| 850 | O=C(Nc1cc(F)ccc1F)N1CCC(N2CCN(Cc3ccc(F)cc3)C2=O)CC1 |
| 902 | Cc1c(C(=O)C(=O)N2CCc3ccccc32)c2ccccc2n1C |
| 1030 | CC(=O)N1CCc2sc(S(=O)(=O)N3CCN(c4cccc(C)c4C)CC3)cc2C1 |
| 771 | CCC1(C(=O)Nc2ccc(C)c(F)c2)CCCCC(=O)N1 (stereo not given) |
| 687 | COc1ccc(CCC(=O)NCC2CCN(C(=O)NC(C)(C)C)CC2)cc1 |
| 763 | CCN1CCCn2cc(S(=O)(=O)Nc3ccc(Cl)cc3F)cc2C1=O |
| 956 | CCS(=O)(=O)N1CCCc2cc(C(=O)NC3CCCCCC3)ccc21 |
| 795 | COc1ccc(N2CCN(C(=O)Cn3cccc3-c3nnc(C4CCC4)o3)CC2)cc1 |
| 613 | O=C(c1ccc(F)cc1)N1CCN(c2nnc3ccccn23)CC1 |
| 615 | CCOc1ccc(C(=O)N2CCN(c3nc(CN4CCOCC4)cs3)CC2)cc1 |
| 674 | Cn1nc(C(=O)N2CCOCC2)c2c1CCN(C(=O)Nc1ccccc1Cl)C2 |
| 759 | CCOc1ccc(CCNC(=O)C2CCCN(c3nnc(C)c4c(C)n(-c5ccccc5)nc34)C2)cc1 (stereo not given) |
| 637 | O=C(c1cn2ccnc(-c3ccccc3)c2n1)N1CCN(C2CCCCC2)CC1 |
| 854 | CCC(C)Sc1nnc(NC(=O)C2CCN(C(=O)c3ccccc3)CC2)s1 (stereo not given) |
| 814 | Cc1noc(C)c1Cc1ccc(C(=O)N2CCCCCCN(C)C(=O)[C@@H]3CCC[C@@H]32)o1 |

| RP-LC retention time [s] | Compound |
| --- | --- |
| 1050 | O=C(Nc1ccc(CN2CCCCC2)cc1)C1CCCN(c2ncnc3c2nc2n3CCCCC2)C1 (stereo not given) |
| 572 | COc1ccc(CN2CCC([C@@H]3CNC[C@H]3CO)CC2)cc1Cn1ccnc1 |
| 673 | O=C(NCc1ccccc1)c1ccc2ccnc(N3CCN(C(=O)c4ccco4)CC3)c2c1 |
| 642 | Cc1ccc(C2=NC(c3ccc([N+](=O)[O-])cc3)SC(N3CCOCC3)=N2)cc1 (stereo not given) |
| 1030 | CCOCCCNC(=O)c1ccc(Oc2nccnc2N2CCC(C)CC2)cc1 |
| 645 | CN(CCCNC(=O)CN1C(=O)CCn2nc(-c3cn(C)c4ccccc34)cc21)Cc1ccccc1 |
| 1030 | O=C1COc2ccccc2N1Cc1nc(-c2ccc3c(c2)nnn3C2CCCC2)no1 |
| 722 | Cc1cc2nn(CC(=O)NCC3CCCO3)c(=O)n2c(Nc2ccc(F)cc2)n1 (stereo not given) |
| 691 | CCC1(O)CCC12CCN(C(=O)c1ccoc1)CC2 (stereo not given) |
| 709 | CCn1c(=O)n(CCN2CCOCC2)c(=O)c2cnc(-c3ccc(Cl)cc3)nc21 |
| 697 | CSc1nnc(-c2nn(C)c3c2CN(C(=O)c2ccccc2F)CC3)n1C |
| 839 | Cc1ccc2[nH]cc(CCNC(=O)Cn3c4ccccc4c4cnn(C)c(=O)c43)c2c1 |
| 665 | Cc1cccc(C2CC(=O)c3c(C)nc(N4CCN(CCO)CC4)nc3C2)c1 (stereo not given) |
| 746 | CCc1ccc(S(=O)(=O)N2CCC(n3cnnc3CC)CC2)cc1 |
| 976 | O=C(Nc1ccc(F)cc1F)C1CCCN(S(=O)(=O)Cc2ccc(F)cc2)C1 (stereo not given) |
| 792 | COc1ccccc1N1CCN(CCN(C(=O)c2ccc(F)cc2)c2ccccn2)CC1 |
| 585 | NCCC1CCN(C(=O)Nc2ccc(F)cc2F)CC1 |
| 579 | CCNC(=O)NCC1CCN(S(=O)(=O)C2CC2)CC1 |
| 630 | Cc1cc(C)n(CC(=O)N(C)C2CCc3nn(CC4CC4)c(=O)n3CC2)n1 (stereo not given) |
| 690 | Cc1ccc(-c2cc(C(N)=O)[nH]n2)cc1C |
| 637 | Cc1ccc(-c2ncc(C(=O)NCCN3CCCCCC3)c(-c3ccncc3)n2)cc1 |
| 910 | CC1=C(c2ccc(C)cc2)S(=O)(=O)N=C1N1CCCN(C(=O)CC2CCCC2)CC1 |
| 728 | Cc1oc(C2CCN(C(=O)Nc3cccc(Cl)c3C)CC2)nc1C(=O)N(C)C |
| 607 | Cn1c(C(=O)N2CCN(c3ccccn3)CC2)cc2c(=O)oc3ccccc3c21 |

The next lines start with the compound.

| Compound | RP-LC retention time [s] |
| --- | --- |
| O=c1c(NCc2ccccc2Cl)nccn1-c1ccc2c(c1)OCO2 | 932 |
| COc1ccc(-c2nc(C3CC(=O)N(c4ccc(Cl)cc4)C3)no2)cc1F (stereo not given) | 1030 |
| Cn1nnc2cc(-c3noc(C4CCCO4)n3)ccc21 (stereo not given) | 730 |
| CCn1cc(CN2C[C@@H](COC)[C@H](c3ccccn3)C2)c(C)n1 | 573 |
| Cc1nc2cc(NC(=O)c3csc(Nc4ncccn4)n3)ccc2s1 | 706 |
| COc1ccc(CCNC(=O)CSc2nnc(Cc3csc(N)n3)n2C)cc1OC | 539 |
| COC(=O)c1ccccc1NC(=O)Cc1csc(Nc2ccccn2)n1 | 703 |
| O=C(c1cocn1)N1CC(F)(F)C[C@H]1c1nnc(-c2ccncc2)o1 | 638 |
| COCCc1noc(-c2ccccc2OC2CNC2)n1 | 590 |
| CC(=O)Nc1ccc(C(=O)Nc2ccccc2N)cc1 | 629 |
| COc1ccc(CC(=O)Nc2cc(-c3cn4cccnc4n3)ccc2OC)cc1 | 675 |
| O=C(Cc1ccccc1)NCc1nc(-c2ccc3oc(-c4ccccc4)nc3c2)no1 | 997 |
| CCc1noc(NC(C)=O)c1-c1ccc(OC)c(S(=O)(=O)Nc2cc(OC)ccc2OC)c1 | 774 |
| Cc1ccc(-n2ccc(=O)c(-c3nc(-c4cccc(Br)c4)no3)n2)cc1 | 1030 |
| COc1ccc(Cl)cc1NC(=O)Nc1ccc2c(c1)C(=O)NCC2 | 748 |
| CSc1nc2ccc3nc(NC(=O)c4ccc([N+](=O)[O-])o4)sc3c2s1 | 930 |
| Cc1ccc(-c2nnc(Cc3nc(-c4ccc(F)c(F)c4)no3)o2)cc1F | 1110 |
| Cc1cc(NC(=O)c2cc3c(=O)n(CC(C)C)ccc3n2C)ccc1Br | 1030 |
| CCN(CC)C(=O)Cn1cc(C(=O)C(=O)N(C)Cc2ccccc2)c2ccccc21 | 890 |
| COCCn1cc(C(=O)N2CCCc3ccccc32)c2nn(-c3ccccc3)c(=O)c-2c1 | 943 |
| O=C(Cn1nc2nc(Nc3ccc(F)cc3)ccn2c1=O)Nc1ccc(F)cc1 | 751 |

| Compound | RP-LC retention time [s] |
| --- | --- |
| Cc1cccc(-c2noc(Cn3c(=O)n(-c4cccc(F)c4)c(=O)c4sccc43)n2)c1 | 1030 |
| O=C(O)/C=C/C(=O)Nc1cccc2cccnc12 | 751 |
| Cc1cc(C(=O)NCCCC(=O)Nc2cccc3cccnc23)c(C)o1 | 728 |
| CCCC(=O)N(C)CC1CCOCC1 | 630 |
| COc1ccc(CN2C(=O)COC[C@H]2C(=O)NCc2ccc(Cl)cc2)c(OC)c1 | 805 |
| CC1CCc2[nH]nc(C(=O)NCC3CCCO3)c2C1 (stereo not given) | 702 |
| O=C(Cn1c(=O)c(=O)n(Cc2ccncc2)c2ncccc21)NCCc1ccc(Cl)cc1 | 633 |
| CCOC(=O)c1ccccc1NC(=O)Cn1nc2cc(-c3ccccn3)nc(C)n2c1=O | 875 |
| O=c1c(=O)n(-c2cccc(Cl)c2)ccn1Cc1nc(-c2cccc(F)c2)no1 | 895 |
| CNc1nc(Nc2ccccc2Cl)nc2ccccc12 | 683 |
| O=C(N[C@H]1C[C@@H]2C[C@H]1N(C(=O)NCc1cccc(F)c1)C2)c1cccs1 | 765 |
| O=C(C1CCN(S(=O)(=O)N2CCOCC2)CC1)N1CCC(c2nc(C3CCOCC3)no2)CC1 | 674 |
| Cc1ccc(C(=O)Nc2ccc3c(c2)Sc2ncccc2C(=O)N3C)cc1C | 876 |
| CCCn1cc(S(=O)(=O)NCc2ccccc2OC)c2cccnc21 | 890 |
| COCCCN1CCC(NC(=O)c2cc(Cl)c(N)c3c2OCC3)CC1 | 641 |
| O=S(=O)(c1cccs1)N1CC(c2nc(-c3ccncc3)no2)C1 | 679 |
| CCN(CC)c1nc2cc(C(=O)OC)ccc2c(=O)n1Cc1ccc(F)cc1 | 1180 |
| Cc1onc(-c2ccccc2Cl)c1C(=O)OCn1nnc2ccccc2c1=O | 891 |
| Cc1cccc(NS(=O)(=O)c2ccc3c(c2)C(=O)N(C)c2ncccc2O3)c1C | 970 |
| OCCN(Cc1ccccc1)CC(O)COc1cccc2ccccc12 (stereo not given) | 601 |
| CC1=CC(=O)CC(C)(C)C1(O)/C=C/C(C)=C/C(=O)O (stereo not given) | 693 |
